According to patent US20150140043A1, “IMMUNOMODULATORY METHODS USING NOTCH AGONISTS” (INSTITUT NATIONAL DE LA SANTE DE LA RECHERCHE MEDICAL …, priority 2012, published 2015):

Legend:
Format in all cases: cell-based, human
[1] = test system: CD4+CD25- T cell proliferation; assay: Sensitization of CD4+CD25- T cells to low-dose TGF-β (anti-CD3 plus NOTCH ligands, no Treg); details: anti-CD3 plus ligand (5 μg/ml), TGF-β 0.1 ng/ml, 5 days
Protocol: (§1) FIG. 2: NOTCH suppresses the proliferation of CD4^+CD25^− T cells through TGF-β • A) CD4^+CD25^−T cells were cultured for 5 days in coated wells with anti-CD3 and NOTCH ligands (5 μg/ml) or IgG control (5 μg/ml) in the presence of Treg at ratio 1:16. Anti-TGF-β or IgG control mAbs (2.5 μg/ml) were added at the beginning of the co-culture. The data represent the mean±SEM. * indicates P<0.05. • B) CD4^+CD25^−T cells were cultured for 5 days in coated wells with anti-CD3 and NOTCH ligands (5 μg/ml) or IgG control (5 μg/ml). Low dose of TGF-β (0.1 ng/ml) was added. The data represent the mean±SEM.
Peripheral blood mononuclear cells were separated by Ficoll-Hypaque centrifugation (Amersham Biosciences) from buffy coats obtained from healthy blood donors (EFS, Créteil). CD4^+ CD25^− T cells and CD4^+CD25^high T cells were isolated using a CD4^+ T cell enrichment column and a human CD4^+CD25^+ Treg isolation kit purchased from Miltenyi Biotec. CD4^+CD25^− cells and CD4^+CD25^+ cells were enriched to greater than 95% purity. Cells were plated in media at a concentration of 1.25×10^5 to 5×10^5 cells per ml in a 96-well round-bottom plates coated with 1 μg/ml of anti-CD3 (UCHT1) and 5 μg/ml of NOTCH Ligand (DL-1-Fc, DL-4-Fc and Jagged-1-Fc are a generous Gift from Dr. Sakano). […]

[2] = test system: CD4+CD25- T cell proliferation; assay: Sensitizing assay: cells pre-incubated with NOTCH ligands, washed, then cultured with anti-CD3 with or without Treg; details: for Percentage of inhibition of cell proliferation by Treg: CD4+CD25- T cells pre-exposed overnight to ligand (5 μg/ml), Treg ratio 1:8, 5 days anti-CD3, mean of 4 experiments; for Effect of exposure of Treg to ligand on Treg capacity to suppress CD4+CD25- proliferation: Treg exposed to ligand, anti-CD3 mAbs, data not shown
Protocol: FIG. 1: NOTCH signalling is involved in Treg mediated inhibition of anti-CD3 stimulated CD4^+CD25^− T cell proliferation • A) Various ratio of CD4^+CD25^− T cells and CD4^+CD25^high T cells were cultured for 5 days in coated wells with anti-CD3 (1 μg/ml) in the presence or not of inhibitor of g-secretase (GSI 10 μM). Percentages of inhibition were calculated from the raw data using the equations: 1—(mean cpm of co-culture wells divided by mean cpm of CD4^+CD25^− cells cultured alone)×100. The data represent the mean±SEM and are representative of 5 independent experiments. * indicates P<0.05. • B) CD4^+CD25^−T cells were cultured for 18 hours in coated wells with anti-CD3 and NOTCH ligands (5 μg/ml) or IgG control (5 μg/ml). Then, T cells were washed and incubated for 5 days in coated wells with anti-CD3 in the absence or presence of Treg at ratio 1:8. The data represent the mean±SEM of inhibition of T cell proliferation of 5 independent experiments.
(§2) Peripheral blood mononuclear cells were separated by Ficoll-Hypaque centrifugation (Amersham Biosciences) from buffy coats obtained from healthy blood donors (EFS, Créteil). CD4^+ CD25^− T cells and CD4^+CD25^high T cells were isolated using a CD4^+ T cell enrichment column and a human CD4^+CD25^+ Treg isolation kit purchased from Miltenyi Biotec. CD4^+CD25^− cells and CD4^+CD25^+ cells were enriched to greater than 95% purity. Cells were plated in media at a concentration of 1.25×10^5 to 5×10^5 cells per ml in a 96-well round-bottom plates coated with 1 μg/ml of anti-CD3 (UCHT1) and 5 μg/ml of NOTCH Ligand (DL-1-Fc, DL-4-Fc and Jagged-1-Fc are a generous Gift from Dr. Sakano).
A total of 2.5×10^4 CD4^+CD25^− T cells were cultured with various ratios of CD4^+CD25^high cells and 1 μg/ml of anti-CD3 for 5 days, in the presence or absence of 10 μm of the gamma-secretase inhibitor Compound E. A total of […] [^3H] thymidine (Amersham Pharmacia) was added to the wells during the last 16 hours of culture. The cells were then harvested and assessed for [^3H] thymidine incorporation using a liquid scintillation counter. Results were expressed as mean cpm of quadriplicate culture wells.
(§3) Percentage of inhibition was calculated as follows: 1−(mean cpm of co-culture wells divided by mean cpm of CD4^+CD25^− cells cultured alone)×100.
In sensitizing assays CD4^+CD25^− and CD4^+CD25^high were pre-incubated during 16 hours on coated NOTCH Ligand. Cells were also collected, washed and incubated alone or with Treg and stimulated as described above. Some experiments were performed in the presence of anti-TGF-β or IgG control (2.5 μg/ml). […]

[3] = test system: CD4+CD25- T cell proliferation; assay: Coculture of effector T cells and Treg at low ratio on immobilized NOTCH ligands, with or without anti-TGF-β; design: Mean inhibition of T cell proliferation / Mean inhibition of T cell proliferation in the presence of anti-TGF-β mAbs: unit of the concentration uncertain
Protocol: as §1, §2, §3
In sensitizing assays CD4^+CD25^− and CD4^+CD25^high were pre-incubated during 16 hours on coated NOTCH Ligand. Cells were also collected, washed and incubated alone or with Treg and stimulated as described above. Some experiments were performed in the presence of anti-TGF-β or IgG control (2.5 μg/ml).
The implication of NOTCH1 on effector T cell responses in the presence of Treg through a TGF-β signalling mechanism has not yet been elucidated. To test this, a coculture experiments of effector T cells and Treg at a low ratio (ratio 1:16) in the presence of immobilized NOTCH ligands DL1, DL4 and Jagged-1 or Ig controls at […] was performed. […]

[4] = test system: TGF-βRII protein expression; assay: Surface staining / flow cytometry of TGF-βRII protein on CD4+CD25- T cells; details: CD4+CD25- T cells incubated 48 hours with ligand
Protocol: FIG. 3: TGF-βRII expression on effector T cells after NOTCH ligands exposure • A) CD4^+CD25^−T cells were purified using Miltenyi microbeads from PBMC and cultured for 3 hours in coated wells with anti-CD3 (200 ng/ml) and NOTCH ligands (5 μg/ml) or IgG control (5 μg/ml). Quantitative real-time PCR was performed to measure the transcripts levels of TGF-βRII. Data shown are mean±SEM and are representative of 4 independent experiments. * indicates P<0.05. • B) Protein levels of TGF-βRII in CD4^+CD25^−T cells stimulated to DL-1, DL-4 and Jagged-1 using FACS analysis. Mean of fluorescence are represented±SEM. * indicates P<0.05.
For surface staining, the cells were harvested, washed twice and resuspended in 1% FCS buffer. The cells were stained with mAbs for CD4 (Beckman Coulter), TGF-βRII (R&D) as per manufacturer's instructions for 20 min at 4° C. Cells were then analyzed by flow cytometry using FACScalibur™ and CellQuest™ software (Becton Dickinson, San Jose, Calif., USA).
TGF-βRII protein expression was assessed by flow cytometry. In these experiments, effector CD4^+CD25^− T cells were isolated and incubated for 48 hours in the presence of NOTCH ligands or IgG control.

Row | Molecule | Percentage of inhibition of proliferation in the presence of TGF-β [1] [%] | Percentage of inhibition of cell proliferation by Treg [2] [%] | Effect of exposure of Treg to ligand on Treg capacity to suppress CD4+CD25- proliferation [2] | Mean inhibition of T cell proliferation in the presence of anti-TGF-β mAbs ([3]; coculture with Treg at ratio 1:16, immobilized ligand at 5 µg/mL, anti-TGF-β 2.5 µg/mL added at the beginning of the culture) [%] | Mean inhibition of T cell proliferation ([3]; coculture with Treg at ratio 1:16, immobilized ligand at 5 µg/mL, no anti-TGF-β) [%] | TGF-βRII protein expression (MFI) [4] | Effect of anti-TGF-β on coculture of Treg and ligand-treated effector T cells ([3]; Treg ratio 1:16, anti-TGF-β 2.5 μg/ml)
1 | Jagged-1: recombinant NOTCH ligand Jagged-1, used coated as Jagged-1-Fc (SEQ ID NO: 5) | 87.8 | 65 | did not modify the Treg capacity | 19.3 | 65 | 130 | –
2 | DL-1: recombinant NOTCH ligand Delta-like 1, used coated as DL-1-Fc (SEQ ID NO: 8) (protein, listed as Homo sapiens) MGSRCALALAVLSALLCQVWSSGVFELKLQEFVNKKGLLGNRNCCRGGAGPPPCACRTFFRVCLKHYQASVSPEPPCTYGSAVTPVLGVDSFSLPDGGGADSAFSNPIRFPFGFTWPGTFSLIIEALHTDSPDDLATENPERLISRLATQRHLTVGEEWSQDLHSSGRTDLKYSYRFVCDEHYYGEGCSVFCRPRDDAFGHFTCGERGEKVCNPGWKGPYCTEPICLPGCDEQHGFCDKPGECKCRVGWQGRYCDECIRYPGCLHGTCQQPWQCNCQEGWGGLFCNQDLNYCTHHKPCKNGATCTNTGQGSYTCSCRPGYTGATCELGIDECDPSPCKNGGSCTDLENSYSCTCPPGFYGKICELSAMTCADGPCFNGGRCSDSPDGGYSCRCPVGYSGFNCEKKIDYCSSSPCSNGAKCVDLGDAYLCRCQAGFSGRHCDDNVDDCASSPCANGGTCRDGVNDFSCTCPPGYTGRNCSAPVSRCEHAPCHNGATCHERGHRYVCECARGYGGPNCQFLLPELPPGPAVVDLTEKLEGQGGPFPWVAVCAGVILVLMLLLGCAAVVVCVRLRLQKHRPPADPCRGETETMNNLANCQREKDISVSIIGATQIKNTNKKADFHGDHSADKNGFKARYPAVDYNLVQDLKGDDTAVRDAHSKRDTKCQPQGSSGEEKGTPTTLRGGEASERKRPDSGCSTSKDTKYQSVYVISEEKDECVIATEV | 42.9 | 64.8 | did not modify the Treg capacity | – | – | 85 | did not affect
